Publication PMC8703450, “New Heterocyclic Combretastatin A-4 Analogs: Synthesis and Biological Activity of Styryl-2(3H)-benzothiazolones” (Pharmaceuticals, 2021)

What was measured:
EA.hy926 cells [1] = assay: MTT cytotoxicity / growth inhibition assay, EA.hy926; format: cell-based, human
Experimental: The endothelial cell line (EA.hy926) was kindly provided by Dr. C-J.S. Edgell—University of North Carolina, USA. Cells were cultured in 4.5 g/L D-Glucose DMEM/F12 medium, supplemented with 10% fetal bovine serum (FBS, Cytogen GmBH, Greven, Germany) and 100 U/mL penicillin and streptomycin (Lonza BioWhitaker, Verviers, Belgium). The other cell lines used are described in Table S3.1. Cell cultures were maintained in an incubator at 37 °C with 95% humidity and 5% CO2 and were routinely found free of mycoplasma.
All tested compounds were dissolved in DMSO at 25 mM initial concentration and diluted with medium to obtain the working concentrations (0.01 nM–250 µM). Serial drug dilutions were prepared in medium immediately before each experiment. The DMSO working concentration in the medium was […]. For the MTT assay, cells were seeded into 96-well microtitre plates at a density of 1 × 10^4 in 100 µL complete medium per well. They were further incubated for 24 h, followed by treatment with CA-4 analogs up to 72 h. Cell viability was determined using the MTT assay. Ten µL of MTT solution (5 mg/mL) was added to each well and further incubated for 3 h at 37 °C. To dissolve the formazan product, 100 µL/well of 99.5% isopropanol was added. Cell viability was determined by measuring absorbance at 550/630 nm using a DTX880 plate reader (Beckman Coulter, USA). Results, expressed as concentrations that inhibit 20% (IC20), 50% (IC50), and 80% (IC80) of cell growth, were calculated using GraphPad Prism 8.0.1.

EA.hy926 cells [2] = assay: Clonogenic survival assay; format: cell-based, human; conditions: 72 h treatment + 6 days recovery; for decrease in colony number: EA.hy926, 250 nM; for reduction in colony formation: EA.hy926, 2.5, 10 and 25 µM
Experimental: EA.hy926 cells were seeded at 300 cells/well on a 6-well plate and incubated for 24 h. The cells were treated with different concentrations of test compounds for 72 h. After six additional days of growth in a fresh medium to form visible colonies, cells were washed with phosphate-buffered saline (PBS, pH 7.4) and stained with crystal violet (0.5%, w/v) in 6% glutaraldehyde. After 30 min of incubation, the plates were washed with tap water, dried, photographed, and analyzed using ImageJ [79]. Raw data were normalized to the corresponding DMSO control for each independent experiment. After normalization, statistically significant differences for colony-forming efficiency (CFE) values versus […] were calculated.

EA.hy926 cells [3] = assay: In vitro cell migration (wound-healing) assay; format: cell-based, human; conditions: EA.hy926, 50 nM, 24 h
Experimental: A total of 3 × 10^5 EA.hy926 cells were seeded in a 12-well plate and grown close to the confluence. The cell monolayer was gently scraped with a P200 pipette tip, creating a wound area around 1-mm wide. Cells were washed twice with fresh medium and treated with test compounds diluted in growth media to the corresponding sub-toxic concentrations. Images were acquired at 0 and 24 h following treatment. After incubation for 24 h, the scratch wound width was measured and recorded, and then compared with the initial scratch wound width at 0 h. Using the ImageJ image processing program (ImageJ150-WIN-Java8), the size of the denuded area in pixels was determined at each time point from the digital images.

EA.hy926 cells [4] = assay: Matrigel tube disruption assay; format: cell-based, human; conditions: EA.hy926 on Matrigel, IC50 concentration, 24 h of treatment, compared with time 0
Experimental: The tube formation assay was performed in 96-well plates coated with 40 µL BD Matrigel™ (basement membrane matrix), following the manufacturer’s instruction (BD Biosciences). A total of 2 × 10^4 EA.hy926 cells was re-suspended in growth medium and added to each well in a final volume of 100 µL. Tube formation was visualized directly using a light microscope. Images were captured using a phase-contrast microscope and quantitation was performed using the WimTube application of the Wimasis online image analysis platform (https://www.wimasis.com/en/products/13/WimTube; accessed on 1 June 2021).

α,β-tubulin = assay: In vitro quantification of polymeric vs. soluble tubulin fractions in EA.hy926 cells; format: cell-based, human; conditions: EA.hy926, 1 µM, 6 h; DMSO control 2.33 ± 0.14
Experimental: To assess the early effects on the microtubule cytoskeleton in vitro, EA.hy926 cells were cultured for 24 h in 6-cm dishes (3 × 10^5 cells). They were exposed to […] (control), 1 μM CA-4, paclitaxel, or increasing concentrations of 26Z (50, 100, 250, 2500, 10,000 nM) for 6 h. Cells were washed with PBS and lysed directly in the dishes with hypotonic lysis buffer (20 mM Tris-HCl, 1 mM MgCl2, 2 mM EGTA, 0.5% Triton X-100, glycerol 10%, pH 6.8), supplemented with protease inhibitors (2 μg/mL leupeptin, 2 μg/mL pepstatin, 0.4 mM Na vanadate, 0.5 mM PMSF, 1 mM DTT), for 3 min at 30 °C. The soluble fraction was immediately collected, mixed with 5× sample buffer, and boiled at 95 °C for 5 min. The polymerized fraction was collected directly from the culture dish following 10 min of incubation at room temperature with 1× sample buffer.
For the concentration-dependent assay, the cells were harvested by scraping and centrifuged at 1000 g for 5 min, and then lysed with the hypotonic cell lysis buffer for 10 min at room temperature. Tubulin fractions were obtained by centrifugation at 12,000 × g for 10 min.
Equal volumes of the samples were subjected to 10% SDS-PAGE followed by western blotting. Detection of β-tubulin content was accomplished with an anti-β-tubulin mouse monoclonal antibody (sc-101527, Santa Cruz Biotechnology).

[5] = tested on: rhodamine-labeled α,β-tubulin; assay: Ex vivo rhodamine-tubulin polymerization (fluorescence microscopy); conditions: 20 μM, 37 °C, 45 min
Experimental: TAMRA-Tubulin (TL590M, Cytoskeleton) diluted in GTB buffer (PEM, 10% glycerol, 1 mM GTP) was mixed with unlabeled α,β-tubulin (T240, Cytoskeleton) at a ratio of 1:3 (v/v) to a concentration of 4.0 mg/mL. […] Samples were then centrifuged for 20 min at 30,000× g. The pellets were diluted in 6 µL PEM buffer, containing 1 mM GTP and 0.5% glutaraldehyde, mixed with anti-fade mounting media (P36934, Invitrogen, Eugene, USA), and examined under a confocal LSM 980 Airyscan microscope (Carl Zeiss AG, Oberkochen, Germany).

[6] = Homo sapiens, EA.hy 926, 72 h of treatment

SMILES: COc1ccc(/C=C\c2cccc3sc(=O)n(C)c23)cc1 [Compound 15Z, (E/Z)-4-(4-Methoxystyryl)-3-Methyl-2(3H)-Benzothiazolone]
- IC50 (EA.hy926 cells [1]; 72 h of treatment): 22 ± 4.57 µM

SMILES: COc1ccc(/C=C\c2cccc3sc(=O)n(C)c23)cc1OC [Compound 16Z, (Z)-4-(3,4-Dimethoxystyryl)-3-methyl-2(3H)-benzothiazolone]
- IC50 (EA.hy926 cells [1]; [6]): 25.8 ± 3.11 µM

SMILES: COc1cc(/C=C\c2cccc3sc(=O)n(C)c23)cc(OC)c1 [Compound 17Z, (Z)-4-(3,5-Dimethoxystyryl)-3-methyl-2(3H)-benzothiazolone]
- IC50 (EA.hy926 cells [1]; [6]): 19.5 ± 2.71 µM

SMILES: COc1cc(/C=C\c2cccc3sc(=O)n(C)c23)cc(OC)c1OC [Compound 18Z, (Z)-3-Methyl-4-(3,4,5-trimethoxystyryl)-2(3H)-benzothiazolone]
- IC50 (EA.hy926 cells [1]; [6]): 15.6 ± 1.16 µM

SMILES: COc1ccc(/C=C\c2ccc3sc(=O)n(C)c3c2)cc1 [Compound 19Z, (Z)-5-(4-Methoxystyryl)-3-methyl-2(3H)-benzothiazolone]
- IC50 (EA.hy926 cells [1]; [6]): 12 ± 2.49 µM

SMILES: COc1ccc(/C=C\c2ccc3sc(=O)n(C)c3c2)cc1OC [Compound 20Z, (Z)-5-(3,4-Dimethoxystyryl)-3-methyl-2(3H)-benzothiazolone]
- IC50 (EA.hy926 cells [1]; [6]): 14.6 ± 1.75 µM

SMILES: COc1cc(/C=C\c2ccc3sc(=O)n(C)c3c2)cc(OC)c1 [Compound 21Z, (Z)-5-(3,5-Dimethoxystyryl)-3-methyl-2(3H)-benzothiazolone]
- IC50 (EA.hy926 cells [1]; [6]): 10.8 ± 0.62 µM

SMILES: COc1cc(/C=C\c2ccc3sc(=O)n(C)c3c2)cc(OC)c1OC [Compound 22Z, (Z)-3-Methyl-5-(3,4,5-trimethoxystyryl)-2(3H)-benzothiazolone]
- IC50 (EA.hy926 cells [1]; [6]): 9.43 ± 0.92 µM

SMILES: COc1ccc(/C=C\c2ccc3c(c2)sc(=O)n3C)cc1 [Compound 23Z, (Z)-6-(4-Methoxystyryl)-3-methyl-2(3H)-benzothiazolone]
- IC50 (EA.hy926 cells [1]; [6]): 19.8 ± 3.45 µM

SMILES: COc1ccc(/C=C\c2ccc3c(c2)sc(=O)n3C)cc1OC [Compound 24Z, (Z)-6-(3,4-Dimethoxystyryl)-3-methyl-2(3H)-benzothiazolone]
- IC50 (EA.hy926 cells [1]; [6]): 9.28 ± 1.13 µM

SMILES: COc1cc(/C=C\c2ccc3c(c2)sc(=O)n3C)cc(OC)c1 [Compound 25Z, (Z)-6-(3,5-Dimethoxystyryl)-3-methyl-2(3H)-benzothiazolone]
- decrease in colony number (EA.hy926 cells [2]): 55%
- reduction in colony formation (EA.hy926 cells [2]): about 100%
- IC50 (EA.hy926 cells [1]; [6]): 1.88 ± 0.18 µM
- remaining mean wound opened area (EA.hy926 cells [3]): 22.4%

SMILES: COc1cc(/C=C/c2ccc3c(c2)sc(=O)n3C)cc(OC)c1OC [Compound 26E, (E/Z)-3-Methyl-6-(3,4,5-Trimethoxystyryl)-2(3H)-Benzothiazolone]
- IC50 (EA.hy926 cells [1]; 72 h of treatment): 38.2 ± 5.35 µM

SMILES: COc1cc(/C=C\c2cccc3c2sc(=O)n3C)cc(OC)c1OC [Compound 27Z, (E/Z)-3-Methyl-7-(3,4,5-Trimethoxystyryl)-2(3H)-Benzothiazolone]
- decrease in colony number (EA.hy926 cells [2]): 75%
- reduction in colony formation (EA.hy926 cells [2]): about 100%
- IC50 (EA.hy926 cells [1]; [6]): 0.3 ± 0.05 µM
- remaining mean wound opened area (EA.hy926 cells [3]): 3%
- reduction in cumulative tube length (EA.hy926 cells [4]): ~ 70%
- melting point: 155 to 156 °C
- soluble vs. polymerized tubulin ratio (α,β-tubulin): 1.82 ± 0.36

SMILES: CC(=O)O[C@H]1C(=O)[C@@]2(C)[C@H]([C@H](OC(=O)c3ccccc3)[C@]3(O)C[C@H](OC(=O)[C@H](O)[C@@H](NC(=O)c4ccccc4)c4ccccc4)C(C)=C1C3(C)C)[C@]1(OC(C)=O)CO[C@@H]1C[C@@H]2O [paclitaxel, reference compound]
- fluorescent microtubule fiber formation [5]: promoted the formation of microtubule fibers
- soluble vs. polymerized tubulin ratio (α,β-tubulin): 0.51 ± 0.19
